Data from patent publication US20090018620A1, “METHOD FOR RESTORING AN E[…]” ([…], priority 2007, published 2009).
“Also recorded” adds a separate entry of the source.

Legend:
LSt neurons [1] = experiment: Muscimol injection into LSt neuron area 3.4 s after LSt neuron microstimulation, during ongoing rhythmic BS EMG activity (FIG. 4); format: in vivo, rat
Protocol: (§1) All procedures were in accordance with the European Communities Council Directives 86/609/EEC on the use of laboratory animals. Male adult sexually naïve Wistar rats (Janvier, Le Genest-St-Isle, France) of 275-325 grams, housed for at least 4 days in our animal facility before experimentation, were anesthetized with […] intraperitoneal urethane while body temperature was maintained at 37° C. with a homeothermic blanket. […] Custom-made bipolar steel wire electrodes (AS631, CoonerWire, CA, USA) were implanted into the exposed dorsal part of the right bulbospongiosus (BS) muscle. After suprapubic midline abdominal incision, a 1.1 mm diameter mineral oil-filled catheter was inserted into the lumen of the right seminal vesicle (SV) via its apex or the right vas deferens (VD) was cut and a 0.61 mm diameter catheter filled with isotonic salt solution inserted into the prostatic portion of the VD lumen. Then, the spine was exposed dorsally and fixed with a stereotaxic frame. Laminectomy was performed between vertebrae L1-T13 to expose […] spinal level and the dura was carefully removed. To improve intraspinal access, we incubated the spinal cord for 20 minutes with 3 units/μl collagenase type VII from Clostridium histolyticum (Sigma-Aldrich Chimie, St.Quentin Fallavier, France). To target T12 to L6 spinal levels in FIG. 2C, we performed 2-3 laminectomies on the same animal. Acute spinalization was performed through a complete spinal transection between T8 and T9 spinal levels one hour before microstimulation started. We performed bilateral sectioning of i) the hypogastric and pelvic nerves close to the major pelvic ganglion or iii) the dorsal nerves of the penis at the penile crus. A single experiment lasted 2 to 4 hours.
(§2) Monopolar spinal microstimulation was performed with a ‘Formvar’-coated nichrome wire of 50 μm diameter (AM-Systems Inc. WA, USA). Typically, the electrode was positioned on the dorsal surface at L4 spinal level, adjacent to the right of the dorsal spinal artery and lowered vertically with a hydraulic microdrive (Trent-Wells, Coulterville, Calif., USA) to ˜1600 μm depth in correspondence with the stereotaxic coordinates for laminae VII and X (S2), taking as electrode depth the read-out of the microdrive. A reference electrode was placed in the vicinity of the tail. Electrical stimuli were delivered using a pulse generator (model-2100, AM-Systems Inc. WA, USA). Biphasic rectangular current pulses of 0.5 ms duration applied in short trains of 60 to 100 pulses at 200 Hz for a total duration of 300 to 500 ms were applied. This stimulus was optimal without causing temporal overlap between stimulus and the SV/VD/BS muscle responses, according to preliminary experiments. […]

LSt neurons [2] = experiment: Muscimol injection into LSt neuron area at L4 immediately before intraspinal microstimulation, BS EMG recording (FIG. 3); format: in vivo, rat
Protocol: as §1, §2

[3] = ~20 minutes after muscimol injection

## NCc1cc(=O)[nH]o1 [muscimol]
LSt neurons [1]; average of 5 animals, injection total duration 400 ms
  Time to full suppressive effect on BS EMG activity after muscimol injection: ≤ 160 ± 120 ms
LSt neurons [1]; muscimol applied 3.4 s after end of LSt neuron microstimulation, mean BS rEMG 0.3-15.3 s after injection, n=5, P<10^−5
  Rhythmic pattern of BS EMG activity, of the control response: 2±2%
LSt neurons [1]; ~200 nl of 50 μM muscimol injected 3.4 s after microstimulation, LSt neuron area adjacent to electrode tip
  Effect on ongoing BS EMG activity (example experiment): completely interrupted the BS EMG activity; also recorded: rapidly turned off BS EMG activity
LSt neurons [1]; [3]
  BS EMG response to microstimulation after recovery period: partial response recovery
LSt neurons [2]; anesthetized rats, 50 μM muscimol injected at L4 near electrode tip, microstimulation immediately after, n=5, P<10^−5
  BS EMG activity following microstimulation, of the control response: 6±5%
LSt neurons [2]; anesthetized rats, n=5, P=0.07
  BS EMG activity during the time of microstimulation (unrelated to the ejaculation response) in the presence of muscimol as compared to controls: 58±25%
LSt neurons [2]; ~200 nl of 50 μM muscimol in the vicinity of the electrode tip, immediately before microstimulation
  Effect on BS EMG activity evoked by second identical microstimulation (example experiment): abolished BS EMG activity
LSt neurons [2]; [3]
  BS EMG response to third microstimulation (recovery): partial response recovery
